Test results: BindingDB's records for doi:10.1021/jm010999g (2002)

Experiments:
[1] = biological target: T1, ATP-binding cassette sub-family C member 9 (Rattus norvegicus, UniProt Q63563); assay: Binding affinity to the sulfonylurea receptor 2A (SUR2A) in purified membranes of rat-heart myocytes
[2] = biological target: T1, ATP-binding cassette sub-family C member 9; assay: Binding affinity towards Sulfonylurea receptor 2B (SUR2B) in cultured rat aortic smooth muscle cells (SMC)

T1 sequence (Q63563 whole entry): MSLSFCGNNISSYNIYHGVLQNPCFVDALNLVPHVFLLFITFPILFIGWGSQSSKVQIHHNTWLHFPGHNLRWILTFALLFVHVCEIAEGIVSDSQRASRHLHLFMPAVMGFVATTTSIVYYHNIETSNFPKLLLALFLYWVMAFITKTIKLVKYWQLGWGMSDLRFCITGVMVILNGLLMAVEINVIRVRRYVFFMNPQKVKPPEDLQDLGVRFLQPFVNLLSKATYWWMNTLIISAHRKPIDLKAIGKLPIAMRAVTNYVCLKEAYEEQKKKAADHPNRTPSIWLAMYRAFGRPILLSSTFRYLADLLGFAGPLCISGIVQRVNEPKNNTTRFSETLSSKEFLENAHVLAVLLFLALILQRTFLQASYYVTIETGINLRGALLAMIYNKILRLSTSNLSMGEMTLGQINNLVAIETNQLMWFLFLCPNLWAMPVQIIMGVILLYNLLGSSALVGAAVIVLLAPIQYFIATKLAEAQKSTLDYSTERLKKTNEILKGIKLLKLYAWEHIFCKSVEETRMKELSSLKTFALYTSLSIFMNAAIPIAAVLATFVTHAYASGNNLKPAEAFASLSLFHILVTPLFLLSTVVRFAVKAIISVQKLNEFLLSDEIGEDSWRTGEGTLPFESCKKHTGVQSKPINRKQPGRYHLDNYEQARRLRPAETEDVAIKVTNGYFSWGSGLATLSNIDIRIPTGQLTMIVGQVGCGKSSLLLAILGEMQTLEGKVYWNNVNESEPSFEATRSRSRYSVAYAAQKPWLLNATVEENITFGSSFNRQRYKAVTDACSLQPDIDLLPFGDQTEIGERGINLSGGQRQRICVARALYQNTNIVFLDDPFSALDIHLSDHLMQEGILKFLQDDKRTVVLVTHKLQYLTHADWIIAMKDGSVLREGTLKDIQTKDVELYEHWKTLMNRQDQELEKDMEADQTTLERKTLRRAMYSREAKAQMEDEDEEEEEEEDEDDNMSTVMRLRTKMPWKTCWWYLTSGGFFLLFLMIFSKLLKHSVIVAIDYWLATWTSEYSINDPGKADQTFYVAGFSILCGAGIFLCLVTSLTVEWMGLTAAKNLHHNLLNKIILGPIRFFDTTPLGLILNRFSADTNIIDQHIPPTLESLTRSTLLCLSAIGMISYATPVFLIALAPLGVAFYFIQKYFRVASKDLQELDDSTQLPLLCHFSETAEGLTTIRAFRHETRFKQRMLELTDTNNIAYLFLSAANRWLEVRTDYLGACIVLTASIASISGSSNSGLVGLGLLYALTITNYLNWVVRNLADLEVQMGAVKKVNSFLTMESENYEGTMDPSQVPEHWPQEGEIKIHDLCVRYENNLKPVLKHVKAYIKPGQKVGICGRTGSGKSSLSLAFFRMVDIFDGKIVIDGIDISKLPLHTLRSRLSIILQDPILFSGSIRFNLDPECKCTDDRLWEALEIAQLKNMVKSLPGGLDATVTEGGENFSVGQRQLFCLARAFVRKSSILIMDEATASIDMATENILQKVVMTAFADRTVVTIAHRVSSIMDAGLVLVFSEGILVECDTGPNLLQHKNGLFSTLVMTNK

Structure (SMILES)	Kd [1]	Kd [2]
CC1(C)C=C(n2ccccc2=O)c2cc(S(=O)(=O)Nc3ccc(Br)cc3)ccc2O1	1700 nM	224 nM
CC1(C)C=C(n2ccccc2=O)c2cc(S(=O)(=O)Nc3ccccc3F)ccc2O1	23 nM	11 nM
CC(C)NS(=O)(=O)c1ccc2c(c1)C(n1ccccc1=O)=CC(C)(C)O2	6610 nM	8320 nM
CCNS(=O)(=O)c1ccc2c(c1)C(n1ccccc1=O)=CC(C)(C)O2	200 nM	100 nM
CN(c1ccccc1)S(=O)(=O)c1ccc2c(c1)C(n1ccccc1=O)=CC(C)(C)O2	20 nM	13 nM
CC1(C)C=C(n2ccccc2=O)c2cc(S(=O)(=O)NC(=O)Nc3ccccc3)ccc2O1	2820 nM	–
CC1(C)Oc2ccc(S(=O)(=O)c3ccccc3)cc2[C@@H](N2CCCC2=O)[C@@H]1O [Rilmakalim]	27 nM	7.1 nM
CC1(C)C=C(n2ccccc2=O)c2cc(S(=O)(=O)F)ccc2O1	15 nM	9.8 nM
CC1(C)C=C(n2ccccc2=O)c2cc(S(=O)(=O)Nc3ccccc3Br)ccc2O1	138 nM	23 nM
CC1(C)C=C(n2ccccc2=O)c2cc(S(=O)(=O)NC3CCCC3)ccc2O1	1410 nM	537 nM
CC1(C)C=C(n2ccccc2=O)c2cc(S(=O)(=O)NCc3ccccc3)ccc2O1	5250 nM	1000 nM
CC1(C)C=C(n2ccccc2=O)c2cc(S(=O)(=O)NCCO)ccc2O1	692 nM	457 nM
CC1(C)C=C(n2ccccc2=O)c2cc(S(=O)(=O)N=[N+]=[N-])ccc2O1	15 nM	–
CC1(C)C=C(n2ccccc2=O)c2cc(S(=O)(=O)NC(=O)NC3CCCCC3)ccc2O1	5620 nM	–
CC1(C)C=C(n2ccccc2=O)c2cc(S(=O)(=O)Nc3ccc(C#N)cc3)ccc2O1	3160 nM	759 nM
CC1(C)C=C(n2ccccc2=O)c2cc(C#N)ccc2O1 [Bimakalim]	56 nM	10 nM
CC1(C)C=C(n2ccccc2=O)c2cc(S(=O)(=O)Oc3ccccc3)ccc2O1	17 nM	2.8 nM
CNS(=O)(=O)c1ccc2c(c1)C(n1ccccc1=O)=CC(C)(C)O2	66 nM	55 nM
CCN(CC)S(=O)(=O)c1ccc2c(c1)C(n1ccccc1=O)=CC(C)(C)O2	355 nM	115 nM
[2H]c1c([2H])c([2H])c(NS(=O)(=O)c2ccc3c(c2)C(n2ccccc2=O)=CC(C)(C)O3)c([2H])c1[2H]	19 nM	7.4 nM
CC1(C)C=C(n2ccccc2=O)c2cc(S(N)(=O)=O)ccc2O1	316 nM	115 nM
CN(C)S(=O)(=O)c1ccc2c(c1)C(n1ccccc1=O)=CC(C)(C)O2	123 nM	63 nM
CC1(C)C=C(n2ccccc2=O)c2cc(S(=O)(=O)Nc3ccccc3)ccc2O1	15 nM	8.9 nM
CC1(C)C=C(n2ccccc2=O)c2cc(S(=O)(=O)c3ccccc3)ccc2O1	138 nM	65 nM
CC1(C)C=C(n2ccccc2=O)c2cc(S(=O)(=O)Nc3ccc([N+](=O)[O-])cc3)ccc2O1	4470 nM	1590 nM
COc1ccc(NS(=O)(=O)c2ccc3c(c2)C(n2ccccc2=O)=CC(C)(C)O3)cc1	537 nM	245 nM
CC1(C)C=C(n2ccccc2=O)c2cc(S(=O)(=O)N3CCOCC3)ccc2O1	363 nM	186 nM
